Data set [1] relates to photoreceptors in rd10 retinal explant cultures. The experiment in a line: Remaining photoreceptor rows in rd10 organotypic retinal explant cultures. It is filed as cell-based, mouse. As to conditions: treated P11 until P17 or P24, DSPC-containing liposomes, same drug concentration. As for the experimental part:
FIG. 4A—Treatment of organotypic retinal explant cultures derived from the rd10 mice model. Retinas were cultured at P9 and treated from P11 until either P17 or P24 with free neuroprotective CN03 or with CN03 encapsulated in pyruvate-liposomes (Lp-Pyr/CN03). Representative images of retinal explant culture sections at P17 and P24. DAPI used as nuclear stain. ONL=outer nuclear layer, INL=inner nuclear layer.
FIG. 4B—As for 4A, shown is the number of remaining photoreceptor rows in the tissue sections. NT and CN03 substantially overlap. Results represent mean±SD. At P17: n=4-6. At P24: n=4-5. **=p≤0.01 between the Lp-Pyr/CN03 and CN03 or NT group. Statistical analysis: Two-way ANOVA with Tukey's multiple comparison test. Scale bar 50 μm.
Retinas derived from the rd1 or rd10 mouse models were cultured following the protocol described above and treated with the drugs CN03 or CN04. A treatment was done by applying a 20 μL solution containing 160 μM drug (either loaded in liposomes or in a free solution) to the top of the cultures. […] 11 z-stacks 1 μm apart were recorded, and from the projected images, the number of TUNEL-positive cells in the outer nuclear layer was manually counted. For the rd10 derived cultures, the average number of photoreceptor rows residing in the outer nuclear layer was counted from microscopy images, using the same imaging method. […]

The subject of data set [2] is photoreceptors in rd1 retinal explant cultures. The experiment in a line: TUNEL assay of dying photoreceptors in rd1 organotypic retinal explant cultures. It counts as cell-based, mouse. The following applies: free drug solution, 160 μM in 20 μL, final 3.14 μM, P7-P11. As for the experimental part:
FIG. 3A—Treatment of organotypic retinal explant cultures derived from the rd1 mouse model. Retinas were cultured at P5 and treated with either liposome-encapsulated or non-encapsulated (free) neuroprotective drugs (CN03 or CN04) from P7-P11. Assuming an equal distribution across the entire culturing medium, the final drug concentration was 3.14 μM for all treatments. The amount of dying photoreceptors in tissue sections from cultures under various treatment conditions was assessed using the TUNEL assay. DAPI was used to distinguish the outer nuclear layer (ONL). INL=inner nuclear layer. Scale bar 50 μm.
FIG. 3B—As for 3A, shown are percentages of dying (TUNEL+) cells in the ONL. Under non-treated (NT) conditions, the number of TUNEL+ cells are high in the rd1 model. Administration of free CN03 or CN04 had no significant effect on cell death. […]
Retinas derived from the rd1 or rd10 mouse models were cultured following the protocol described above and treated with the drugs CN03 or CN04. […] 11 z-stacks 1 μm apart were recorded, and from the projected images, the number of TUNEL-positive cells in the outer nuclear layer was manually counted. For the rd10 derived cultures, the average number of photoreceptor rows residing in the outer nuclear layer was counted from microscopy images, using the same imaging method. […]

In data set [3] the target is MCT2. The following applies: cited from earlier work.
Data set [4] addresses MCT1. The following applies: cited from earlier work.
A short description of data set [5]: In vitro drug release from liposomes. It is filed as physicochemical. The following applies: liposomes according to the invention, in vitro set-up. Here is the method:
Complete release of CN04 from liposomes according to the invention was shown in an in vitro set-up within 48 h. The release rate for CN03 and CN04 can be lowered by precipitation within the liposome cavity with a specific salt using a remote loading technique similar to what has been done for liposomal doxorubicin formulations. CN03 has previously been remote loaded in similar liposomes using calcium acetate salts (Vighi, E., et al., PNAS, 2018, 115(13)).

Molecules are shown by their SMILES.

For the molecule `O=c1c2nc(Br)n([C@@H]3O[C@@H]4CO[P@@](=O)(S)O[C@@H]4C3O)c2nc2[nH]c(-c3ccccc3)cn12` (stereo partly drawn) [CN03, Rp-8-Br-PET-cGMPS], the “Number of remaining photoreceptor rows” value in data set [1] is listed as “did not achieve a rescue effect”. The “Dying photoreceptors (TUNEL+ cells in ONL)” value in data set [2] is on record as “no significant reduction in dying photoreceptors”. On to `Cc1n[nH]c(C)c1Cc1sc2c(c1C(=O)N1C[C@H](O)CO1)c(=O)n(C)c(=O)n2CC(C)C` [AR-C155858], for which, in data set [3], the Ki is under 10 nM. For `Cc1[nH]nc(C(F)(F)F)c1Cc1sc2c(c1C(=O)N1C[C@](C)(O)CO1)c(=O)n(C)c(=O)n2C(C)C` [AZD3965], the Ki in data set [4] is 1.6 nM.

Regarding `O=c1c2nc(Sc3ccc(Cl)cc3)n([C@@H]3O[C@@H]4CO[P@@](=O)(S)O[C@@H]4C3O)c2nc2[nH]c(-c3ccccc3)cn12` (stereo partly drawn) [CN04, Rp-8-pCPT-PET-cGMPS], the “Complete release from liposomes (time)” value in data set [5] is at most 48 h. In addition, the “Dying photoreceptors (TUNEL+ cells in ONL)” value in data set [2] is on record as “no significant reduction in dying photoreceptors”.

The Ki is the equilibrium dissociation constant of an inhibitor or competing ligand from its target.

(Values after US20260115312A1, “Conjugates for neuroretinal drug delivery” (Mireca Medicines GmbH, priority 2022, published 2026).)
